Source: US12678403B2, “Pharmaceutical composition for preventing or treating obesity or non-alcoholic fatty liver containing Polygalin C as active ingredient” (UNIVERSITY-INDUSTRY COOPERATION GROUP OF KYUNG HEE …, priority 2021, dated 2026)

Key:
ACC = test: Western blotting, ACC phosphorylation in 3T3-L1 adipocytes; format: cell-based, mouse
Protocol: (§1) 3T3-L1 cells were inoculated into a 6-well plate in a density of 8×10^4 cells/well, and the medium was replaced until the confluence is satisfied. For differentiation, cells were incubated in differentiation media (0.5 mM IBMX, 0.5 μM dexamethasone, and 1 μg/mL insulin). The medium was then replaced with a maintenance culture including 1 μg/mL insulin and PC (0-50 μM) once every 2 days.
(§2) Cell lysis buffer (Cell Signaling Technology) was used to lyse cells. The reagent for Bio-Rad protein assay was used to measure protein concentrations for Bradford assay. Each sample was separated by sodium dodecyl sulfate polyacrylamide gel electrophoresis using 8% acrylamide gel and then electrotransferred to a nitrocellulose membrane. The membrane was blocked with 3% bovine serum albumin (BSA) in Tris buffered saline/Tween 20 (TBS-T) at 4° C. for 1 hour and incubated overnight at 4° C. with COX-2, C/EBPα, PPARγ, SREBP1c, FAS, p-ACC, t-ACC, p-AMPK, t-AMPK (1:2000), and β-actin (1:10,000) antibodies. The membrane was extensively washed with TBS-T at 3 or more times for 30 minutes and incubated with goat anti-rabbit IgG-horseradish peroxidase (HRP) and goat anti-mouse IgG-HRP (1:10,000 all in TBS-T) secondary antibodies for 1 hour.
(§3) The MAPK/Akt and AMPK/ACC signaling pathways are involved in the general steps of adipose tissue generation. […]

3T3-L1 cells [1] = test: Oil Red O staining, adipocyte differentiation / lipid accumulation in 3T3-L1 preadipocytes; format: cell-based, mouse; details: 3T3-L1 cells differentiated with PC 0, 25, 50 μM; vs fully differentiated adipocytes
Protocol: as §1
(§4) The treated cells were washed with PBS and fixed with 10% formalin for 1 hour. The cells were then washed with 60% isopropanol and dried completely. A 60% Oil Red O working solution diluted in distilled water (DW) was added to the cells. In the case of hepatocytes, in order to observe the morphology of the cells, they were additionally treated with hematoxylin for 1 minute for staining. The stained cells were washed with DW 3 times and photographed using the Olympus IX71 microscope (Olympus, Tokyo, Japan). To quantify lipid accumulation, stained cells were dissolved in 100% isopropanol, and measurement was performed at 490 nm with a microplate reader (Bio-Rad).
To investigate whether PC has an inhibitory effect on adipose tissue differentiation, cells were differentiated in the presence and absence of PC at various concentrations (0, 25, and 50 μM), and then Oil red O staining was used. […] Thus, PC reduced accumulation of lipids in 3T3-L1 cells during adipose tissue generation differentiation.

C/EBPα [2] = test: Western blotting, C/EBPα protein in MDI-induced 3T3-L1 adipocytes; format: cell-based, mouse; details: vs MDI-induced group
Protocol: as §1, §2
(§5) To investigate how PC inhibits adipose tissue generation in 3T3-L1 cells, investigation was performed on protein expression levels of key adipose tissue generation markers. […]

COX-2 = test: Western blotting, COX-2 in NEFA-induced fatty liver HepG2 cells; format: cell-based, human; details: NEFA-treated HepG2 cells
Protocol: (§6) HepG2 cells were inoculated into a 6-well plate in a density of 3×10^5 cells/well and incubated for one day. Then, for fatty liver induction, an FBS-free RPMI medium supplemented with 1% bovine serum albumin (BSA) and NEFA (0.66 mM oleic acid and 0.33 mM palmitic acid) was treated, followed by incubation for 24 hours. When treated with PC (0-50 μM), fatty liver induction medium was treated together for incubation for 24 hours.
as §2
It is known that if the symptoms persist in the fatty liver stage, it causes an inflammatory reaction to develop steatohepatitis. […]

3T3-L1 cells [3] = test: MTT assay, cytotoxicity of PC in 3T3-L1 cells; format: cell-based, mouse; details: 0-100 μM PC, 48 hours
Protocol: 3T3-L1 preadipocytes were inoculated into a 96-well cell culture plate by 1×10^4 cells/well and incubated overnight. The medium was then replaced with DMEM including different concentrations of PC (0, 5, 10, 25, 50, 75, and 100 μM) for 48 hours.
(§7) After PC treatment, cells were incubated with MTT solution (0.5 mg/ml dissolved in PBS) for 2 hours. After incubation, the medium in each well was removed, and dimethyl sulfoxide was added to dissolve the precipitated formazan. When formazan was completely dissolved, the absorbance was measured at 540 nm using a microplate reader (Bio-Rad) to determine cell viability.
In order to identify cytotoxicity of PC in 3T3-L1 cells, various concentrations of PC (0, 5, 10, 25, 50, 75, and 100 μM) were treated for 48 hours, and then cell viability was determined using MTT assay.

SREBP1c [4] = test: Immunofluorescence analysis, SREBP1c in MDI-induced adipocytes; format: cell-based, mouse
Protocol: The cells were treated with or without PC in a 4-well confocal dish. After treatment, the cells were fixed with 10% formalin for 10 minutes, treated with 0.2% Triton X diluted in PBS for 20 minutes, washed with PBS 3 times, and blocked with 5% BSA dissolved in PBS for 1 hour. Next, cells were incubated overnight in the presence of anti-SREBP1 antibodies (1:500 in PBS) at 4° C., followed by incubation in the presence of Alexa Fluor-555 antibody for 1 hour at room temperature. The cell nucleus was stained with 4,6-diamidino-2-phenylindole (DAPI: Sigma-Aldrich) at room temperature for 3 minutes. DAPI-stained cells were washed with PBS for 30 minutes, and fluorescence was observed using CELENA™ S Digital Imaging System (Logos Biosystems, Inc.).
In order to determine whether the PC inhibits the adipogenic factors, the degree of expression of the adipogenic factors was examined through Western blotting and real-time PCR. FAS and SREBP1 play an important role in adipogenesis, protein expression levels of which were investigated. […] In addition, according to FIGS. 3B and 3C, the RNA level was reduced compared to fully differentiated adipocytes.

FAS [5] = test: Real-time PCR, FAS RNA in 3T3-L1 adipocytes; format: cell-based, mouse; details: vs fully differentiated adipocytes
Protocol: as §1
(§8) Cells were treated with Ribo-Ex to extract RNA using GeneAll Hybrid-R RNA purification kit (GeneAll, Seoul, Korea). RNA was quantified using NanoDrop (Thermo Fisher Scientific). Amplification of complementary DNA was performed at 45° C. for 60 minutes and 95° C. for 15 minutes using a Maxime RT premix (iNtRON Biotechnology, South Korea). Real-time quantitative PCR was performed using the Universal SYBR Green Master Mix (Applied Biosystems, Foster City, CA, USA). Real-time PCR was performed on Applied Biosystems StepOne System (Applied Biosystems). In this study, relative target gene expression was quantified relatively to gene expression of glyceraldehyde 3-phosphate dehydrogenase to determine mRNA expression levels.
(§9) In order to determine whether the PC inhibits the adipogenic factors, the degree of expression of the adipogenic factors was examined through Western blotting and real-time PCR. FAS and SREBP1 play an important role in adipogenesis, protein expression levels of which were investigated. […]

MAPK kinase = test: Western blotting, activated MAPK kinase in MDI-induced adipocytes; format: cell-based, mouse; details: MDI-induced adipocytes (ERK, JNK, p38)
Protocol: as §1, §2
(§10) Next, MAPK and Akt signaling in adipocytes in the presence of PC were investigated by Western Blotting.

PPARγ [6] = test: Western blotting, PPARγ protein in MDI-induced 3T3-L1 adipocytes; format: cell-based, mouse; details: vs MDI-induced group
Protocol: as §1, §2, §5

AMPK = test: Western blotting, AMPK phosphorylation in 3T3-L1 adipocytes; format: cell-based, mouse
Protocol: as §1, §2, §3

FAS [7] = test: Western blotting, FAS in NEFA-induced fatty liver HepG2 cells; format: cell-based, human; details: dose-dependently, vs NEFA-induced fatty liver cells
Protocol: as §6, §2
(§11) Due to treatment of free fatty acids such as NEFA, fatty liver is induced by fat accumulation. […]

SREBP1c [8] = test: Real-time PCR, SREBP1c RNA in 3T3-L1 adipocytes; format: cell-based, mouse; details: vs fully differentiated adipocytes
Protocol: as §1, §8, §9

Akt = test: Western blotting, activated Akt in MDI-induced adipocytes; format: cell-based, mouse
Protocol: as §1, §2, §10

HepG2 cells [9] = test: MTT assay, cytotoxicity of PC and NEFA in HepG2 cells; format: cell-based, human; details: 0-100 μM PC, 24 hours
Protocol: (§12) HepG2 hepatocytes were inoculated into a 96-well cell culture plate by 1×10^4 cells/well and incubated overnight. Then, for 24 hours, they were replaced with fatty liver induction media including different concentrations of PC (0, 5, 10, 25, 50, and 100 μM).
as §7
In order to identify cytotoxicity of PC and NEFA in HepG2 cells, various concentrations of PC (0, 5, 10, 25, 50, and 100 μM) or NEFA (0, 0.5, 1, and 2 mM) were treated for 24 hours, and then MTT assay was used to determine cell viability.

C/EBPδ = test: Real-time PCR, C/EBPδ mRNA in 3T3-L1 adipocytes; format: cell-based, mouse; details: vs adipocytes
Protocol: as §1, §8
(§13) In order to additionally identify expression of other adipose tissue generation markers such as C/EBPβ and C/EBPδ, mRNA levels of these markers were examined.

HepG2 cells [10] = test: Oil Red O staining, fat accumulation in fatty liver-induced HepG2 cells; format: cell-based, human; details: PC 0, 25, 50 μM, vs cells solely treated with NEFA
Protocol: as §6, §4
To investigate whether PC has an inhibitory effect on fat accumulation, cells were treated in the presence and absence of PC at various concentrations (0, 25, and 50 μM), using Oil red O staining. […] Thus, PC reduced accumulation of lipid in fatty liver-induced HepG2 cells.

PPARγ [11] = test: Real-time PCR, PPARγ mRNA in 3T3-L1 adipocytes; format: cell-based, mouse; details: vs fully differentiated adipocytes
Protocol: as §1, §8
(§14) To investigate how PC inhibits adipose tissue generation in 3T3-L1 cells, investigation was performed on protein expression levels of key adipose tissue generation markers. C/EBPα and PPARγ are well-known major transcription factors in adipose tissue generation. […]

HepG2 cells [12] = test: MTT assay, cell viability in NEFA-treated fatty liver-induced HepG2 cell model; format: cell-based, human; details: 1 mM NEFA with 50 µM PC, 24 hours
Protocol: as §6, §12, §7
To determine the preventive and therapeutic effects of PC in fatty liver-induced cell models, treatment of 1 mM NEFA as well as various concentrations of PC (0, 5, 10, 25, 50 μM) were performed for 24 hours, and then MTT assay was used to determine cell viability.

ACC1 = test: Western blotting, ACC1 in NEFA-induced fatty liver HepG2 cells; format: cell-based, human; details: dose-dependently, vs NEFA-induced fatty liver cells
Protocol: as §6, §2, §11

FAS [13] = test: Western blotting, FAS protein in 3T3-L1 adipocytes; format: cell-based, mouse; details: dose-dependently, vs fully differentiated adipocytes
Protocol: as §1
as §2, with “hour. […]” for “hour.”

C/EBPβ = test: Real-time PCR, C/EBPβ mRNA in 3T3-L1 adipocytes; format: cell-based, mouse; details: vs adipocytes
Protocol: as §1, §8, §13

SREBP1c [14] = test: Western blotting, SREBP1c protein in 3T3-L1 adipocytes; format: cell-based, mouse; details: dose-dependently, vs fully differentiated adipocytes
Protocol: as §1
as §2, with “hour. […]” for “hour.”

C/EBPα [15] = test: Real-time PCR, C/EBPα mRNA in 3T3-L1 adipocytes; format: cell-based, mouse; details: vs fully differentiated adipocytes
Protocol: as §1, §8, §14

[16] = PC treatment, 3T3-L1 adipocytes
[17] = vs fully differentiated adipocytes

## Polygalin C [PC]
ACC; [16]
  total ACC expression level: unchanged
ACC; [17]
  phosphorylation of ACC: significantly increased
3T3-L1 cells [1]
  production of lipid droplets (Oil red O): dose-dependently inhibited
C/EBPα [2]
  relative protein level of C/EBPα: decreased dose-dependently
COX-2
  expression of COX-2 induced by NEFA treatment: reduced concentration-dependently
3T3-L1 cells [3]
  concentration with non-toxic effect (cell viability, MTT): up to 50 μM
SREBP1c [4]
  MDI-induced SREBP1c expression (immunofluorescence): significant relieving effect
FAS [5]
  RNA level of FAS: reduced
MAPK kinase
  expression level of activated MAPK kinase: significantly reduced dose-dependently
PPARγ [6]
  relative protein level of PPARγ: decreased dose-dependently
AMPK; [16]
  total AMPK expression level: unchanged
AMPK; [17]
  phosphorylation of AMPK: significantly increased
FAS [7]
  expression level of FAS: significantly reduced
SREBP1c [8]
  RNA level of SREBP1c: reduced
Akt
  expression level of activated Akt: significantly reduced dose-dependently
HepG2 cells [9]
  concentration with non-toxic effect (cell viability, MTT): up to 100 μM
C/EBPδ
  mRNA level of C/EBPδ: decreased concentration-dependently
HepG2 cells [10]
  production of lipid droplets (Oil red O): dose-dependently inhibited
PPARγ [11]
  mRNA expression level of PPARγ: reduced
HepG2 cells [12]
  cell viability (MTT) in NEFA-treated cells: cell viability was restored
ACC1
  expression level of ACC1: significantly reduced
FAS [13]
  protein expression level of FAS: significantly reduced
C/EBPβ
  mRNA level of C/EBPβ: decreased concentration-dependently
SREBP1c [14]
  protein expression level of SREBP1c: significantly reduced
C/EBPα [15]
  mRNA expression level of C/EBPα: reduced
